Test results as given in patent US6582910B1, “WbpP and method for assay of WbpP” (priority 1999, dated 2003).
“Also recorded” adds a separate entry of the source.

Legend:
WbpP [1] = target: T1, WbpP (Pseudomonas aeruginosa, UniProt Q8KN66); test: Capillary electrophoresis, kinetic parameters for UDP-GlcNAc and UDP-GalNAc; format: biochemical; settings: acetylated substrates; for kcal: CE; for Km / Vmax: initial rates, 3 min, 37° C., 20 mM Tris pH 8, CE
T1 construct: made in house; host or cells: E. coli BL21(DE3)pLysS, pET23 derivative
Method: Determination of the kinetic parameters for UDP-GlcNAc and UDP-GalNAc by capillary electrophoresis—Reactions were performed at 37° C. in 20 mM Tris pH 8 with a total reaction volume of 44 μl. The amount of purified enzyme added was 234 ng and 117 ng for reaction with UDP-GlcNAc and UDP-GalNAc, respectively. After incubation at 37° C. for the required amount of time, the reactions were quenched by boiling the sample for 6 min. Time course studies were performed with final sugar-nucleotide concentrations of 0.075 and 1.75 mM. Samples were quenched after 0, 2, 4, 6, 8, 10 and 15 min. […] Capillary electrophoresis (CE) analysis was performed using a P/ACE 5000 system (Beckman, Fullerton, Calif.) with UV detection. The running buffer was 25 mM sodium tetraborate pH 9.4. The capillary was bare silica 75 μm×57 cm, with a detector at 50 cm. The capillary was conditioned before each run by washing with 0.2 M NaOH for 2 min, water for 2 min, and running buffer for 2 min. Samples were introduced by pressure injection for 4 s and the separation was performed at 22 kV. Peak integration was done using the Beckman P/ACE Station software. The calculation of kinetic parameters was done using the PRISM program.
FIG. 4: Capillary electrophoresis analysis of the epimerisation of UDP-GlcNAc and UDP-GalNAc by WbpP at equilibrium. The reactions were performed in a total volume of 35 μl with 1.5 mM substrate and 17 μg of enzyme. They were incubated at 37° C. for 2 h. 1, UDP-GalNAc alone; 2, UDP-GlcNAc alone; 3, UDP-GlaNAc+WbpP; 4, UDP-GlcNAc+WbpP.
FIG. 5: Time Course of epimerisation of UDP-GlcNAc and UDP-GalNAc by WbpP as measured by capillary electrophoresis. Reactions were performed at 37° C. in 20 mM Tris pH 8 with a total reaction volume of 44 μl. The amount of purified enzyme added was 234 ng and 117 ng for reaction with UDP-GlcNAc and UDP-GalNAc, respectively. Closed circles, UDP-GlcNAc 0.075 mM; Closed squares, UDP-GalNAc 0.075 mM; Open circles, UDP-GlcNAc 1.75 mM; Open squares, UDP-GalNAc 1.75 mM.

WbpP [2] = target: T1, WbpP; test: DMAB spectrophotometric assay of epimerisation of UDP-GlcNAc and UDP-GalNAc; format: biochemical; settings: for Specific activity: 0.75 mM substrate
Method: Determination of the enzymatic conversion of UDP-GlcNAc and UDP-GalNAc using p-dimethylaminobenzaldehyde (DMAB)—Reactions were performed with a total reaction volume of 35 μl at 37° C. in 20 mM Tris pH 8 unless stated otherwise. The specific amount of enzyme used, substrate concentrations, and incubation time are indicated in the legend of each figure. The reactions were stopped by acid hydrolysis of the UDP moiety of the substrate. For this purpose, the samples were acidified to pH 2 by addition of 7 μl of HCl 0.1 N, boiled for 6 min, and neutralised by addition of 7 μl of NaOH 0.1 N. For the spectrophotometric quantification of GalNAc and GlcNAc, the reagent DMAB was prepared at 10% in glacial acetic acid/HCl 9/1 v/v, and further diluted 1/10 in glacial acetic acid before use (Reissig et al. (1955)). For the assay itself, 100 μl of 0.2 M sodium tetraborate pH 9.1 were added to 50 μl of quenched and neutralised enzymatic reactions and boiled immediately for 3 min. 40 μl of this mixture were transferred to a microtitration plate and 200 μl of DMAB reagent were added. After incubation for 30 min at 37° C., the OD595 nm was recorded using a microplate reader. For practical reasons, the DMAB assay was carried out using a wavelength setting of 595 nm in the spectrophotometer. […] The assay was done in duplicate for each reaction tested. Standard curves were prepared using UDP-GlcNAc and UDP-GalNAc that were subjected to acid hydrolysis in the same conditions as described above.
FIG. 3: Study of the epimerisation of UDP-GlcNAc and UDP-GalNAc by WbpP using the DMAB assay. Panel A, standard curves obtained with each compound separately. Open circles, UDP-GlcNAc; Open squares, UDP-GalNAc. Panel B, comparison of the experimental data (closed triangles) obtained for mixtures of UDP-GalNAc and UDP-GlcNAc of different proportions (constant total sugar-nucleotide concentration of 0.75 mM) and the theoretical data (open triangles) calculated from the standard curves from panel 3A. 3C: Activity of WbpP as a function of the amount of enzyme added. The reactions were performed with […] substrate in a total volume of 35 μl for 8 min at 37° C. Closed circles, UDP-GlcNAc; Closed squares, UDP-GalNAc.
FIG. 6: Determination of the optimum pH and temperature for the epimerisation of UDP-GlcNAc by WbpP using the DMAB assay: For the pH study (panel A), the reactions were performed with 5 mM UDP-GlcNAc and 39 ng of enzyme in a total volume of 44 μl and incubated for 10 min at 37° C. The pH between 5 and 7 were obtained with 50 mM sodium acetate buffer (open circles), whereas pH 7 to 10 were obtained with 50 mM Tris-HCl (closed circles). For the temperature study (panel B), the reactions were performed in 50 mM Tris-HCl pH 8 with 5 mM UDP-GlcNAc and 0.78 ng of enzyme in a total volume of 44 μl and 30 min incubation. For both panels, two enzymatic reactions were set up in each experimental condition and two determinations of residual UDP-GlcNAc were made per reaction. Each point represents the average of the four determinations.

WbpP [3] = target: T1, WbpP; test: Requirement for NAD+ or divalent cations for enzymatic activity (capillary electrophoresis); format: biochemical; settings: NAD+ 1 mM, divalent cations 4 mM, acetylated or non-acetylated substrates
Method: Study of the Requirement for NAD+ or divalent cations for enzymatic activity—To access the requirement for NAD+ or divalent cations for the enzymatic activity of WbpP, reactions were carried out with or without NAD+ (1 mM final concentration), and with or without divalent cations (4 mM final concentration of MnCl2, MgCl2, or CaCl2) and monitored by capillary electrophoresis as described above.

[4] = target: the molecule itself; test: gel filtration on G100 Sephadex, self-association (homodimer)
[5] = Storage stability of purified WbpP; format: physicochemical; settings: −20° C. in 25% glycerol or 20% adonitol in Tris pH 8
Method: Purification of WbpP by chromatography—Cells sedimented from 100 ml induced culture were resuspended in 10 ml of buffer A (5 mM imidazole, 20 mM Tris pH 8, 0.1 M NaCl). The cells were briefly sonicated (macrotip, sonicator XL2020 Heat systems Incorporated, power set to 4, 2 min total, 5 sec on, 5 sec off) on ice. Cell debris were removed by centrifugation at 13000×g for 15 min at 4° C. and the supernatant was applied to a 3 ml fast flow cielating sepharose column (Amersham-Pharmacia, Quebec) previously loaded with nickel sulfate (30 ml of 0.1 M) and equilibrated with 5 column volumes (CV) of buffer A. Loading of the sample as well as all washing and elution steps were done by gravity. After loading of the sample, the column was washed with 10 CV of buffer A and 5 CV of buffer B (20 mM imidazole, 20 mM Tris pH 8, 0.1M NaCl). Elution was carried out with 3 CV of buffer C (1 M imidazole, 20 mM Tris pH 8, 0.5 M NaCl 0.1 M). Fractions were collected every 1 CV. […] This fraction was subjected to further purification by anion exchange chromatography after dilution 1/30 in 50 mM Tris pH 8. Half of it was loaded onto a 1 ml column of Q Sepharose fast flow (Pharmacia). The column was washed with 30 CV of Tris buffer and the protein was eluted with 3 CV of 50 mM Tris pH 8, 0.5 M NaCl. […] Protein quantitation was done using the BCA reagent (Pierce, Rockford, Ill.).

[6] = fraction: anion exchange (purified WbpP)

`CC(=O)N[C@H]1[C@@H](OP(=O)(O)OP(=O)(O)OC[C@H]2O[C@@H](n3ccc(=O)[nH]c3=O)[C@H](O)[C@@H]2O)O[C@H](CO)[C@@H](O)[C@@H]1O` [UDP-GlcNAc, UDP-N-acetylglucosamine] showed a kcal (WbpP [1]) of 120 ± 3 min⁻¹, a Km (WbpP [1]) of 224 µM and a Vmax (WbpP [1]) of 741 ± 22 pmol/min. For the same molecule, the Specific activity (WbpP [2]; fraction: IMAC) was 2.0 U/mg, the Specific activity (WbpP [2]; [6]) was 2.3 U/mg and the Specific activity (WbpP [2]; fraction: soluble fraction) was 1.1 U/mg. The Specific activity (WbpP [2]; fraction: total cell extract) was 0.2 U/mg and the “Specific activity of purified WbpP” value (WbpP [2]) was 2.3 Units/mg.

With `[Cl-].[Cl-].[Mg+2]` [Mg^2+] the “Necessity of addition to the reaction mixture for the C4 epimerase activity” value (shortened to “Necessity of addition”) (WbpP [3]) was “active without requiring addition” and the “Necessity of addition” value (WbpP [3]; listed as Mg2^1) was “not necessary”.

With `NC(=O)c1ccc[n+]([C@@H]2O[C@H](COP(=O)([O-])OP(=O)(O)OC[C@H]3O[C@@H](n4cnc5c(N)ncnc54)[C@H](O)[C@@H]3O)[C@@H](O)[C@H]2O)c1` [NAD^+] the “Necessity of addition” value (WbpP [3]) was “active without requiring addition” and the “Necessity of addition” value (WbpP [3]; listed as NAD^1) was “not necessary”.

For `[Cl][Mn][Cl]` [Mn^2+], the “Necessity of addition” value (WbpP [3]) was “not necessary; also recorded: active without requiring addition”.

With `CC(=O)N[C@H]1[C@@H](OP(=O)(O)OP(=O)(O)OC[C@H]2O[C@@H](n3ccc(=O)[nH]c3=O)[C@H](O)[C@@H]2O)O[C@H](CO)[C@H](O)[C@@H]1O` [UDP-GalNAc, UDP-N-acetylgalactosamine] the kcal (WbpP [1]) was 271 ± 7 min⁻¹, the Km (WbpP [1]) was 197 µM and the Vmax (WbpP [1]) was 840 ± 25 pmol/min. The “Maximum substrate conversion (at equilibrium)” value (WbpP [2]; acetylated substrates, epimerisation by WbpP) was roughly 70%, the Specific activity (WbpP [2]; fraction: IMAC) was 4.6 U/mg and the Specific activity (WbpP [2]; [6]) was 5.6 U/mg. The Specific activity (WbpP [2]; fraction: soluble fraction) was 3.4 U/mg, the Specific activity (WbpP [2]; fraction: total cell extract) was 2.6 U/mg and the “Specific activity of purified WbpP” value (WbpP [2]) was 5.6 Units/mg.

For `[Ca+2].[Cl-].[Cl-]` [Ca^2+], the “Necessity of addition” value (WbpP [3]) was “not necessary; also recorded: active without requiring addition”.

B1: WbpPO6 carrying a N-terminal hexahistidine tag (enzyme)
chain: MHHHHHHGSMGMMSRYEELRKELPAQPKVWLITGVAGFIGSNLLETLLKLDQKVVGLDNFATGHQRNLDEVRSLVSEKQWSNFKFIQGDIRNLDDCNNACAGVDYVLHQAALGSVPRSINDPITSNATNIDGFLNMLIAARDAKVQSFTYAASSSTYGDHPGLPKVEDTIGKPLSPYAVTKYVNELYADVFSRCYGFSTIGLRYFNVFGRRQDPNGAYAAVIPKWTSSMIQGDDVYINGDGETSRDFCYIENTVQANLLAATAGLDARNQVYNIAVGGRTSLNQLFFALRDGLAENGVSYHREPVYRDFREGDVRHSLADISKAAKLLGYAPKYDVSAGVALAMPWYIMFLK
notes: Expressed in E. coli BL21(DE3)pLysS from a pET23 derivative and purified by nickel chelation and anion exchange; In the Western immunoblot it stood as the SDS-denatured single chain; this is not a protein partner; also called WbpP epimerase; UDP-GlcNAc C4 epimerase
In the case of B1, the binding result [4] is reported as “binds”, the Activity after storage [5] is reported as “without any significant loss of activity” and the “pH with significant activity” value (WbpP [2]; epimerisation of UDP-GlcNAc) is reported as greater than 6.5.
